The record followed here is ChEMBL document CHEMBL1122606, “cis-4-[[[(2-Chloroethyl)nitrosoamino]carbonyl]methylamino] cyclohexanecarboxylic acid, a nitrosourea with latent activity against an experimental solid tumor” (J Med Chem, 1984).

The species named for one data set is Mus musculus. The data set is described as follows: Dose showing lethal effects on 10% of the mice bearing lewis lung tumors. Type of data set: functional.
Data set [1] can be described thus: Half life period in phosphate buffer (pH 7.4). Type of data set: ADME.

Structures are written as SMILES.

A word on the half-life: it is the time needed for the level to fall by half in the phase considered.

The molecule `O=NN(CCCl)C(=O)NC1CCC(C(=O)O)CC1` (centres undefined) showed an LD10 in the data set filed under Mus musculus of 26 mg/kg. Moreover, the half-life in data set [1] was 46 h.

As for `CN(C(=O)N(CCCl)N=O)C1CCC(C(=O)O)CC1` (centres undefined), the LD10 in the data set filed under Mus musculus is above 400 mg/kg. The molecule further showed a half-life in data set [1] of 4.5 h.
